In patent US20260022118A1, “HETEROCYCLIC COMPOUNDS AS NRAS INHIBITORS” (Board of Regents, The University of Texas System, priority 2023, published 2026):

system: THP-1 cells expressing G12D (NRAS G12D); test: Inhibition of NRAS G12D-mediated phosphorylation of ERK (AlphaLISA p-ERK1/2) in THP-1 cells; type: cell-based; conditions: 2 hours incubation, HBSS with 0% or 10% FBS, p-ERK1/2 (Thr202/Tyr204) AlphaLISA, read-out: pERK THP-1 IC50
Procedure: Inhibition of NRAS G12D-Mediated Phosphorylation of ERK by Exemplary Compounds of Formulas I, II, and III.
This Example illustrates that exemplary compounds and salts thereof described herein inhibit the phosphorylation of ERK downstream of NRAS G12D.
THP-1 cells (ATCC TIB-202) expressing G12D were maintained in RPMI-1640 medium supplemented with 10% fetal bovine serum (FBS), 0.05 mM 2-mercaptoethanol, and penicillin/streptomycin. Cells (20,000/well) were seeded onto a 384 well plate in 20 μL of HBSS supplemented with 0% or 10% FBS. Cells were incubated in the absence or presence of various concentrations of test compound (final 1% DMSO) for 2 hours. p-ERK expression was assessed using the AlphaLISA SureFire Ultra p-ERK1/2 (Thr202/Tyr204) (PerkinElmer®, ALSU-PERK-A10K) following manufacturer recommendation. Plates were read on a PerkinElmer® Envision Multimode plate reader. Dose-response curves were analyzed using IC50 regression curve fitting (GeneData Screener). Curves were plotted as a percent control and normalized by high controls without inhibitor (100%), and low controls (0%) containing 1 μM of trametinib, a potent MEK inhibitor.

SMILES	IC50 [µM]
C#Cc1c(F)ccc2cc(O)cc(-c3ncc4c([C@H]5[C@@H]6CN[C@@H](C(=O)OC)[C@@H]65)nn(C)c4c3F)c12 (racemic) [Example 47, methyl rac-(2R,6S)-6-[6-(8-ethynyl-7-fluoro-3-hydroxy-1-naphthyl)-7-fluoro-1-methyl-pyrazolo[4,3-c]pyridin-3-yl]-3-azabicyclo[3.1.0]hexane-2-carboxylate]	0.116
C#Cc1c(F)ccc2cc(O)cc(-c3ncc4c([C@H]5[C@@H]6CN[C@@H](C(=O)OC)[C@@H]65)nn(C)c4c3F)c12 (racemic) [Example 48, methyl rac-(2R,6S)-6-[6-(8-ethynyl-7-fluoro-3-hydroxy-1-naphthyl)-7-fluoro-1-methyl-pyrazolo[4,3-c]pyridin-3-yl]-3-azabicyclo[3.1.0]hexane-2-carboxylate]	6.47

same assay, conditions: Homo sapiens, THP-1, 2 h, 2 hours incubation, HBSS with 0% or 10% FBS, p-ERK1/2 (Thr202/Tyr204) AlphaLISA, read-out: pERK THP-1 IC50

SMILES	IC50 [µM]
C#Cc1c(F)ccc2cc(O)cc(-c3nc(N(C)C)c4c(N5C[C@H]6CC[C@@H]5CN6)nn(C5CC5)c4c3F)c12 (stereo in doubt) [Example 92, 4-(3-((1R,4R)-2,5-diazabicyclo[2.2.2]octan-2-yl)-1-cyclopropyl-4-(dimethylamino)-7-fluoro-1H-pyrazolo[4,3-c]pyridin-6-yl)-5-ethynyl-6-fluoronaphthalen-2-ol]	> 10
C#Cc1c(F)ccc2cc(O)cc(-c3ncc4c(N5C[C@@H](C)N[C@@H](C)C5)nn(C)c4c3F)c12 [Example 32, 4-[3-[(3R,5S)-3,5-dimethylpiperazin-1-yl]-7-fluoro-1-methyl-pyrazolo[4,3-c]pyridin-6-yl]-5-ethynyl-6-fluoro-naphthalen-2-ol]	> 50
C#Cc1c(F)ccc2cc(O)cc(-c3ncc4c(N5C6CNCC5C6)nn(C)c4c3F)c12 [Example 35, 4-[3-(3,6-diazabicyclo[3.1.1]heptan-6-yl)-7-fluoro-1-methyl-pyrazolo[4,3-c]pyridin-6-yl]-5-ethynyl-6-fluoro-naphthalen-2-ol]	4.66
C#Cc1c(F)ccc2cc(O)cc(-c3ncc4c(N5C[C@@H]6CNC[C@@H]65)nn(C5CC5)c4c3F)c12 [Example 37, 4-[1-cyclopropyl-3-[(1S,5R)-3,6-diazabicyclo[3.2.0]heptan-6-yl]-7-fluoro-pyrazolo[4,3-c]pyridin-6-yl]-5-ethynyl-6-fluoro-naphthalen-2-ol]	6.67
C#Cc1c(F)ccc2cc(O)cc(-c3ncc4c(C5C(=O)C6CCC5CN6)nn(C)c4c3F)c12 (centres unmarked) [Example 41, 5-[6-(8-ethynyl-7-fluoro-3-hydroxy-1-naphthyl)-7-fluoro-1-methyl-pyrazolo[4,3-c]pyridin-3-yl]-2-azabicyclo[2.2.2]octan-6-one]	> 10
C#Cc1c(F)ccc2cc(O)cc(-c3ncc4c(C5CC6CCC5CN6)nn(C)c4c3F)c12 (centres unmarked) [Example 43, 4-[3-(2-azabicyclo[2.2.2]octan-5-yl)-7-fluoro-1-methyl-pyrazolo[4,3-c]pyridin-6-yl]-5-ethynyl-6-fluoro-naphthalen-2-ol]	> 10
C#Cc1c(F)ccc2cc(O)cc(-c3nc(CCC#N)c4c([C@H]5[C@@H]6CNC[C@@H]65)nn(C5CC5)c4c3F)c12 [Example 50, 3-[3-(3-azabicyclo[3.1.0]hexan-6-yl)-1-cyclopropyl-6-(8-ethynyl-7-fluoro-3-hydroxy-1-naphthyl)-7-fluoro-pyrazolo[4,3-c]pyridin-4-yl]propanenitrile]	0.49
C#Cc1c(F)ccc2cc(O)cc(-c3nc(C)c4c([C@H]5[C@@H]6CNC[C@@H]65)nn(C5CC5)c4c3F)c12 [Example 51, 4-[3-(3-azabicyclo[3.1.0]hexan-6-yl)-1-cyclopropyl-7-fluoro-4-methyl-pyrazolo[4,3-c]pyridin-6-yl]-5-ethynyl-6-fluoro-naphthalen-2-ol]	0.25
C#Cc1c(F)ccc2cc(O)cc(-c3nc(Cc4ccccc4)c4c([C@H]5[C@@H]6CNC[C@@H]65)nn(C5CC5)c4c3F)c12 [Example 52, 4-[3-(3-azabicyclo[3.1.0]hexan-6-yl)-4-benzyl-1-cyclopropyl-7-fluoro-pyrazolo[4,3-c]pyridin-6-yl]-5-ethynyl-6-fluoro-naphthalen-2-ol]	3.89
